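Abbreviation: GI50, concentration required for 50% inhibition of growth. The concentration for full growth arrest is given as TGI.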
Tests used:
Test in all cases: inhibition of tumour cell growth, NCI panel, 384-well format
UACC-257 melanoma = tested on: UACC-257 melanoma
MALME-3M melanoma = tested on: MALME-3M melanoma
NCI-H23 lung = tested on: NCI-H23 lung
RXF 393 renal = tested on: RXF 393 renal
EKVX NSCLC = tested on: EKVX NSCLC
U251 glioblastoma = tested on: U251 glioblastoma
SK-MEL-28 melanoma = tested on: SK-MEL-28 melanoma
OVCAR-5 ovarian = tested on: OVCAR-5 ovarian
786-0 renal = tested on: 786-0 renal
MDA-MB-435 melanoma = tested on: MDA-MB-435 melanoma
HL-60(TB) leukemia = tested on: HL-60(TB) leukemia
SN12C renal = tested on: SN12C renal
UACC-62 melanoma = tested on: UACC-62 melanoma
IGROV1 ovarian = tested on: IGROV1 ovarian
SF-539 CNS = tested on: SF-539 CNS
SNB-75 CNS = tested on: SNB-75 CNS
UO-31 renal = tested on: UO-31 renal
SNB-19 CNS = tested on: SNB-19 CNS
NCI-H460 NSCLC = tested on: NCI-H460 NSCLC
NCI-H226 lung = tested on: NCI-H226 lung
TK-10 renal = tested on: TK-10 renal
A549 NSCLC = tested on: A549 NSCLC
NCI/ADR-RES ovarian = tested on: NCI/ADR-RES ovarian
HOP-92 NSCLC = tested on: HOP-92 NSCLC
HS 578T breast = tested on: HS 578T breast
RPMI-8226 leukemia = tested on: RPMI-8226 leukemia
HCT-15 colon = tested on: HCT-15 colon
MDA-MB-231 breast = tested on: MDA-MB-231 breast
MCF7 breast = tested on: MCF7 breast
CAKI-1 renal = tested on: CAKI-1 renal
SK-MEL-5 melanoma = tested on: SK-MEL-5 melanoma
A498 renal = tested on: A498 renal
SF-268 CNS = tested on: SF-268 CNS
SF-295 CNS = tested on: SF-295 CNS
HT29 colon = tested on: HT29 colon
MDA-MB-468 breast = tested on: MDA-MB-468 breast
SW-620 colon = tested on: SW-620 colon
T-47D breast = tested on: T-47D breast
BT-549 breast = tested on: BT-549 breast
HOP-62 NSCLC = tested on: HOP-62 NSCLC
MOLT-4 leukemia = tested on: MOLT-4 leukemia
CCRF-CEM leukemia = tested on: CCRF-CEM leukemia
DU-145 prostate = tested on: DU-145 prostate
NCI-H322M lung = tested on: NCI-H322M lung
ACHN renal = tested on: ACHN renal
HCC-2998 colon = tested on: HCC-2998 colon
M14 melanoma = tested on: M14 melanoma
K-562 leukemia = tested on: K-562 leukemia
LOX IMVI melanoma = tested on: LOX IMVI melanoma
OVCAR-3 ovarian = tested on: OVCAR-3 ovarian
KM12 colon = tested on: KM12 colon
OVCAR-8 ovarian = tested on: OVCAR-8 ovarian
SK-OV-3 ovarian = tested on: SK-OV-3 ovarian
OVCAR-4 ovarian = tested on: OVCAR-4 ovarian
NCI-H522 lung = tested on: NCI-H522 lung
PC-3 prostate = tested on: PC-3 prostate
SR leukemia = tested on: SR leukemia
COLO 205 colon = tested on: COLO 205 colon

## Cc1c(CN2CCN(C(=O)[C@H](C)O)CC2)sc2c(N3CCOCC3)nc(-c3cnc(N)nc3)nc12
UACC-257 melanoma
  GI50: 185 nM
  TGI: 884 nM
MALME-3M melanoma
  GI50: 51 nM
  TGI: 286 nM
NCI-H23 lung
  GI50: 179 nM
  TGI: 5800 nM
RXF 393 renal
  GI50: 352 nM
  TGI: 2330 nM
EKVX NSCLC
  GI50: 173 nM
  TGI: 1010 nM
U251 glioblastoma
  GI50: 1060 nM
  TGI: > 100000 nM
SK-MEL-28 melanoma
  GI50: 154 nM
  TGI: 719 nM
OVCAR-5 ovarian
  GI50: 137 nM
  TGI: 823 nM
786-0 renal
  GI50: 350 nM
  TGI: 2860 nM
MDA-MB-435 melanoma
  GI50: 230 nM
  TGI: 1530 nM
HL-60(TB) leukemia
  GI50: 121 nM
  TGI: 577 nM
SN12C renal
  GI50: 148 nM
  TGI: 694 nM
UACC-62 melanoma
  GI50: 211 nM
  TGI: 1200 nM
IGROV1 ovarian
  GI50: 41.6 nM
  TGI: 192 nM
SF-539 CNS
  GI50: 300 nM
  TGI: 3070 nM
SNB-75 CNS
  GI50: 143 nM
  TGI: 775 nM
UO-31 renal
  GI50: 295 nM
  TGI: > 100000 nM
SNB-19 CNS
  GI50: 2490 nM
  TGI: > 100000 nM
NCI-H460 NSCLC
  GI50: 78.6 nM
  TGI: > 100000 nM
NCI-H226 lung
  GI50: 158 nM
  TGI: 784 nM
TK-10 renal
  GI50: 223 nM
  TGI: 1380 nM
A549 NSCLC
  GI50: 261 nM
  TGI: 2600 nM
NCI/ADR-RES ovarian
  GI50: 651 nM
  TGI: > 100000 nM
HOP-92 NSCLC
  GI50: 84.9 nM
  TGI: 446 nM
HS 578T breast
  GI50: 139 nM
  TGI: 419 nM
RPMI-8226 leukemia
  GI50: 54.4 nM
  TGI: 200 nM
HCT-15 colon
  GI50: 198 nM
  TGI: > 100000 nM
MDA-MB-231 breast
  GI50: 290 nM
  TGI: > 100000 nM
MCF7 breast
  GI50: 48.5 nM
  TGI: > 100000 nM
CAKI-1 renal
  GI50: 197 nM
  TGI: 2820 nM
SK-MEL-5 melanoma
  GI50: 119 nM
  TGI: 386 nM
A498 renal
  GI50: 88.2 nM
  TGI: 473 nM
SF-268 CNS
  GI50: 386 nM
  TGI: 16600 nM
SF-295 CNS
  GI50: 148 nM
  TGI: 695 nM
HT29 colon
  GI50: 246 nM
  TGI: > 100000 nM
MDA-MB-468 breast
  GI50: 97.6 nM
  TGI: 352 nM
SW-620 colon
  GI50: 594 nM
  TGI: > 100000 nM
T-47D breast
  GI50: 25.9 nM
  TGI: 110 nM
BT-549 breast
  GI50: 197 nM
  TGI: 922 nM
HOP-62 NSCLC
  GI50: 292 nM
  TGI: 2920 nM
MOLT-4 leukemia
  GI50: 97.5 nM
  TGI: 282 nM
CCRF-CEM leukemia
  GI50: 361 nM
  TGI: 1920 nM
DU-145 prostate
  GI50: 272 nM
  TGI: 4100 nM
NCI-H322M lung
  GI50: 244 nM
  TGI: 6600 nM
ACHN renal
  GI50: 193 nM
  TGI: 1150 nM
HCC-2998 colon
  GI50: 404 nM
  TGI: 14700 nM
M14 melanoma
  GI50: 228 nM
  TGI: 3710 nM
K-562 leukemia
  GI50: 943 nM
  TGI: > 100000 nM
LOX IMVI melanoma
  GI50: 239 nM
  TGI: 1130 nM
OVCAR-3 ovarian
  GI50: 211 nM
  TGI: 1740 nM
KM12 colon
  GI50: 354 nM
  TGI: 6970 nM
OVCAR-8 ovarian
  GI50: 333 nM
  TGI: > 100000 nM
SK-OV-3 ovarian
  GI50: 133 nM
  TGI: 448 nM
OVCAR-4 ovarian
  GI50: 128 nM
  TGI: 726 nM
NCI-H522 lung
  GI50: 208 nM
  TGI: 974 nM
PC-3 prostate
  GI50: 149 nM
  TGI: 2430 nM
SR leukemia
  GI50: 176 nM
  TGI: 609 nM
COLO 205 colon
  GI50: 208 nM
  TGI: 1370 nM

Reference: PubChem BioAssay (NCI)
